This is an account of results in the Kinase Knowledgebase extract (Sharma et al. 2016).

What is called IC50 is the concentration at which inhibition is half-maximal. A high value points to weaker potency.

A value given as a limit tells only on which side of the number the result lay.

The target of assay [1] is EGFR (human), P00533 [WT].
Assay [2] addresses EGFR (human), P00533 [Inhibition of EGFR(L858RT/790M) Kinase Activity].
The target in the next assay is EGFR (human) (UniProt P00533). The note with it: hcc827.
EGFR (human), sequence (P00533 whole entry, looked up): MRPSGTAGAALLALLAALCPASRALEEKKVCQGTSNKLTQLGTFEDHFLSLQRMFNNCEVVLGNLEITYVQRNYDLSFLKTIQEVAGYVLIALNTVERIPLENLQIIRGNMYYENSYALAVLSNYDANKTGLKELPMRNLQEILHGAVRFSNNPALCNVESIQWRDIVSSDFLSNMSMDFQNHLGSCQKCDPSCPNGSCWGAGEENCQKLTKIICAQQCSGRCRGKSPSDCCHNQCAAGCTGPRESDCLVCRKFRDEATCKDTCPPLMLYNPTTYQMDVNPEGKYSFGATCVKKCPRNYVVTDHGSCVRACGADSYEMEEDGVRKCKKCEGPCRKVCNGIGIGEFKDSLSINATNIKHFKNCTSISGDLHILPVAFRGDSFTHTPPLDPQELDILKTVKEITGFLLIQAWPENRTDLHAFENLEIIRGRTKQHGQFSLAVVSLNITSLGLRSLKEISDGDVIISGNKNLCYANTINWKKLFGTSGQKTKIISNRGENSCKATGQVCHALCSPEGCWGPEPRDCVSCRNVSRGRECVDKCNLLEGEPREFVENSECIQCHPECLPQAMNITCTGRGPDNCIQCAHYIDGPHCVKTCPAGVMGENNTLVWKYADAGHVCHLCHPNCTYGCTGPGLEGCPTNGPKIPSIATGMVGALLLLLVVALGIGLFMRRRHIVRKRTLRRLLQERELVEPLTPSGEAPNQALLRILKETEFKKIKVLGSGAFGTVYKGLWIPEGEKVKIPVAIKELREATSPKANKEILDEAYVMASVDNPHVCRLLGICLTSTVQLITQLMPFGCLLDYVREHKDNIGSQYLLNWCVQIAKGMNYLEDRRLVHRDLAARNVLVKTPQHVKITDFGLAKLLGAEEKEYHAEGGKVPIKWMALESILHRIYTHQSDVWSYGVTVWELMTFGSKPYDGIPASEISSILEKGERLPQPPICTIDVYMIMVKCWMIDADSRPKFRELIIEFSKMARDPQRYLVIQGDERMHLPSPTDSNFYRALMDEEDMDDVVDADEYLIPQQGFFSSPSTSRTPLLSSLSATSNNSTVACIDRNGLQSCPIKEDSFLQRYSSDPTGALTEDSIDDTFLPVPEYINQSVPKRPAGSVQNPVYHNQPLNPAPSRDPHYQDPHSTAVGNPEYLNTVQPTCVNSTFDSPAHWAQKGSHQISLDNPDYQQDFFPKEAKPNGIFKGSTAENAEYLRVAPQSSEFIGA

EGFR (human), P00533 [WT], sequence (P00533 whole entry, looked up): as above
EGFR (human), P00533 [Inhibition of EGFR(L858RT/790M) Kinase Activity], sequence (P00533 whole entry, looked up, change not shown): as the sequence (P00533 whole entry, looked up) above

As to `CN(C)C/C=C/C(=O)N1CCc2c(sc3ncnc(N[C@H](COCc4ccccc4F)c4ccccc4)c23)C1`, the IC50 in assay [1] is under 59 nM; in assay [2], 500 to 2500 nM; on EGFR (human) it was 1 to 99 nM.
In the same order, the values of `C=CC(=O)Nc1cccc(-c2c(-c3ccccc3)oc3ncnc(N[C@H](C)c4ccccc4)c23)c1` are 101 to 900 nM, 500 to 2500 nM and 1 to 99 nM.
Turning to `CN(C)C/C=C/C(=O)N1CCc2c(sc3ncnc(N[C@H](COCc4cccc(F)c4)c4ccccc4)c23)C1`, the values for the IC50 (in assay [1]; in assay [2]; on EGFR (human)) were under 59 nM, 10 to 499 nM and 1 to 99 nM, respectively.
In the same order, the values of `C=CC(=O)N1CCc2c(sc3ncnc(N[C@H](COCc4ccc(C(F)(F)F)cc4)c4ccccc4)c23)C1` are under 59 nM, 10 to 499 nM and 100 to 300 nM.
In the same order, the values of `CC#CC(=O)Nc1cccc(-c2c(-c3ccccc3)oc3ncnc(N[C@H](CO)c4ccccc4)c23)c1` are under 59 nM, 500 to 2500 nM and 1 to 99 nM.
Turning to `C=CC(=O)N1CCc2c(sc3ncnc(N[C@H](CC)c4ccccc4)c23)C1`, the half-inhibitory concentration (IC50) in assay [1] was under 59 nM; in assay [2] it was 500 to 2500 nM; against EGFR (human), 1 to 99 nM.
In the same order, the values of `CN(C)C/C=C/C(=O)Nc1cccc(-c2c(-c3ccccc3)oc3ncnc(N[C@H](CO)c4ccccc4)c23)c1` are under 59 nM, 10 to 499 nM and 1 to 99 nM.
The corresponding values for `CN(C)C/C=C/C(=O)N1CCc2c(sc3ncnc(Nc4ccc(F)c(Cl)c4)c23)C1` are under 59 nM, 10 to 499 nM and 1 to 99 nM.
The corresponding values for `CC[C@@H](Nc1ncnc2sc3c(c12)CCN(C(=O)/C=C/CN(CC)CC)C3)c1ccccc1` are under 59 nM, 500 to 2500 nM and 1 to 99 nM.
In the case of `CNC/C=C/C(=O)N1CCc2c(sc3ncnc(N[C@H](C)c4ccccc4)c23)C1`, the IC50 in assay [1] is under 59 nM; in assay [2], 500 to 2500 nM; against EGFR (human), 1 to 99 nM.
In the same order, the values of `C=CC(=O)N1CCc2c(sc3ncnc(N[C@H](COCc4ccccc4)c4ccccc4)c23)C1` are under 59 nM, 10 to 499 nM and 1 to 99 nM.
In the same order, the values of `C=CC(=O)N1CCc2c(sc3ncnc(N[C@H](C)c4ccccc4)c23)C1` are under 59 nM, 500 to 2500 nM and 1 to 99 nM.
The corresponding values for `O=C(/C=C/CN1CCCCC1)N1CCc2c(sc3ncnc(N[C@H](CO)c4ccccc4)c23)C1` are under 59 nM, 500 to 2500 nM and 1 to 99 nM.
As to `C=CC(=O)N1CCc2c(sc3ncnc(N[C@H](CO)c4ccccc4)c23)C1`, the IC50 in assay [1] is under 59 nM; in assay [2], 10 to 499 nM; against EGFR (human), 1 to 99 nM.
In the same order, the values of `CCN(CC)C/C=C/C(=O)N1CCc2c(sc3ncnc(N[C@H](CO)c4ccccc4)c23)C1` are under 59 nM, 500 to 2500 nM and 1 to 99 nM.
In the same order, the values of `C[C@@H](Nc1ncnc2sc3c(c12)CCN(C(=O)/C=C/CN(CCO)CCO)C3)c1ccccc1` are under 59 nM, 500 to 2500 nM and 1 to 99 nM.
Turning to `CN1CCN(C/C=C/C(=O)N2CCc3c(sc4ncnc(N[C@H](CO)c5ccccc5)c34)C2)CC1`, the IC50 in assay [1] was under 59 nM; in assay [2], 500 to 2500 nM; at EGFR (human), 1 to 99 nM.
In the same order, the values of `C[C@@H](Nc1ncnc2sc3c(c12)CCN(C(=O)/C=C/CN(C)C)C3)c1ccccc1` are under 59 nM, 500 to 2500 nM and 1 to 99 nM.
The corresponding values for `C=CC(=O)N1CCc2c(sc3ncnc(N[C@H](COCc4cccc([N+](=O)[O-])c4)c4ccccc4)c23)C1` are under 59 nM, 10 to 499 nM and 1 to 99 nM.
Regarding `CN(C)C/C=C/C(=O)N1CCc2c(sc3ncnc(N[C@H](CO)c4ccccc4)c23)C1`, the IC50 in assay [1] was under 59 nM; in assay [2] it was 10 to 499 nM; against EGFR (human) it was 1 to 99 nM.
The corresponding values for `C[C@@H](Nc1ncnc2sc3c(c12)CCN(C(=O)/C=C/CNC1CC1)C3)c1ccccc1` are under 59 nM, 500 to 2500 nM and 1 to 99 nM.
Take `C=CC(=O)Nc1cccc(-c2c(-c3ccccc3)oc3ncnc(N[C@H](COC(=O)C=C)c4ccccc4)c23)c1`: the IC50 fell in the range of 101 to 900 nM in assay [1] and 10 to 499 nM in assay [2].
For the compound `CN(C)C/C=C/C(=O)N1CCc2c(sc3ncnc(N[C@H](COCc4ccccn4)c4ccccc4)c23)C1`, the IC50 in assay [1] was under 59 nM; in assay [2] it was 500 to 2500 nM; on EGFR (human), 1 to 99 nM.
In the same order, the values of `C=CS(=O)(=O)N1CCc2c(sc3ncnc(N[C@H](CO)c4ccccc4)c23)C1` are 60 to 100 nM, 500 to 2500 nM and 100 to 300 nM.
For the compound `CN(C)C/C=C/C(=O)N1CCc2c(sc3ncnc(N[C@H](COCc4ccccc4)c4ccccc4)c23)C1`, the IC50 in assay [1] is under 59 nM; in assay [2], 500 to 2500 nM; against EGFR (human), 1 to 99 nM.
In the same order, the values of `O=C(/C=C/CN1CCOCC1)N1CCc2c(sc3ncnc(N[C@H](CO)c4ccccc4)c23)C1` are under 59 nM, 500 to 2500 nM and 1 to 99 nM.
In the same order, the values of `C=CC(=O)N1CCc2c(sc3ncnc(N[C@H](COCc4cccc(OC)c4)c4ccccc4)c23)C1` are under 59 nM, 10 to 499 nM and 1 to 99 nM.
For the compound `CCN(CC)C/C=C/C(=O)N1CCc2c(sc3ncnc(N[C@H](C)c4ccccc4)c23)C1`, the IC50 is under 59 nM in assay [1], 500 to 2500 nM in assay [2] and 1 to 99 nM against EGFR (human).
With `CN(C)C/C=C/C(=O)N1CCc2c(sc3ncnc(N[C@H](CCOCc4ccccc4F)c4ccccc4)c23)C1`, the results for the IC50 (in assay [1]; on EGFR (human)) were under 59 nM and 1 to 99 nM, respectively.
As for `C=CC(=O)N1CCc2c(sc3ncnc(N[C@H](COCc4cccc(C)c4)c4ccccc4)c23)C1`, the figures for the IC50 (in assay [1]; in assay [2]; against EGFR (human)) were under 59 nM, 10 to 499 nM and 1 to 99 nM, respectively.
Turning to `COc1cccc(COC[C@@H](Nc2ncnc3sc4c(c23)CCN(C(=O)/C=C/CN(C)C)C4)c2ccccc2)c1`, the IC50 in assay [1] is under 59 nM; in assay [2], 500 to 2500 nM; on EGFR (human) it was 1 to 99 nM.
The corresponding values for `C=CC(=O)N1CCc2c(sc3ncnc(N[C@H](COC)c4ccccc4)c23)C1` are under 59 nM, 10 to 499 nM and 1 to 99 nM.
Turning to `CCN(CC)C/C=C/C(=O)N1CCc2c(sc3ncnc(N[C@H](COC)c4ccccc4)c23)C1`, the IC50 in assay [1] was in the range of 60 to 100 nM; at EGFR (human), 1 to 99 nM.
The corresponding values for `CN(C)C/C=C/C(=O)N1CCc2c(sc3ncnc(N[C@H](COCc4ccncc4)c4ccccc4)c23)C1` are under 59 nM and 1 to 99 nM.
Take `C=CC(=O)N1CCc2c(sc3ncnc(N[C@@H](CCO)c4ccccc4)c23)C1`: the IC50 in assay [1] is 101 to 900 nM; in assay [2] it was 500 to 2500 nM; against EGFR (human), 301 to 999 nM.
As to `C=CC(=O)Nc1cccc(-c2coc3ncnc(N[C@H](CO)c4ccccc4)c23)c1`, the IC50 was in the range of 60 to 100 nM in assay [1] and 301 to 999 nM on EGFR (human).
In the same order, the values of `CN(C)C/C=C/C(=O)N1CCc2c(sc3ncnc(N[C@H](COCc4ccc(F)cc4)c4ccccc4)c23)C1` are under 59 nM and 1 to 99 nM.
As to `C=CC(=O)N1CCc2c(sc3ncnc(N[C@H](COCc4cccc(F)c4)c4ccccc4)c23)C1`, the IC50 in assay [1] was under 59 nM; in assay [2], 10 to 499 nM; against EGFR (human), 1 to 99 nM.
For `C[C@@H](Nc1ncnc2sc3c(c12)CCN(C(=O)/C=C/CN=[N+]=[N-])C3)c1ccccc1`, the IC50 in assay [1] was under 59 nM; on EGFR (human), 1 to 99 nM.
Consider `C=CC(=O)N1CCc2c(sc3ncnc(N[C@H](CO)Cc4ccccc4)c23)C1`, for which the IC50 in assay [1] is under 59 nM; in assay [2] it was 500 to 2500 nM; on EGFR (human), 301 to 999 nM.
In the same order, the values of `C=CC(=O)N1CCc2c(sc3ncnc(N[C@H](CCO)c4ccccc4)c23)C1` are under 59 nM, 10 to 499 nM and 1 to 99 nM.
